# In patent US11065259B2, “Methods of treating pruritus” (Duke University, priority 2014, dated 2021):
# Test system: pruritus (itch)
# Test: Topical administration to human subjects with psoriasis-associated pruritus
# Format: in vivo
# Conditions: person
# Experimental: The efficacy of Manganese ortho tetrakis(N-n-butoxyethylpyridinium-2-yl)porphyrin (MnTnBuOE-2-PyP^5+) in treating pruritus (itch) when topically applied was evaluated in a person with large areas of moderately severe plaque-forming psoriasis on upper and lower portions of both legs, with each involved area being approximately 10-20 cm in diameter. These lesions were markedly excoriated with intense, persistent symptoms of pruritus. MnTnBuOE-2-PyP^5+ was formulated in Lipoderm at 0.01% and 0.1% concentrations producing a light brown cream which was applied b.i.d. to lesions on one extremity. Symptoms of pruritus were relieved within 10 to 15 minutes after topical application of MnTnBuOE-2-PyP^5+ and remained under control for several hours.
# A second subject with psoriatic involvement of the scalp of moderate severity and associated with marked pruritus and scratching was topically treated with MnTnBuOE-2-PyP^5+ 0.1% in Lipoderm twice daily for 3 weeks.
# [1] = plaque-forming psoriasis on both legs, 0.01% and 0.1% in Lipoderm, topical b.i.d.
# [2] = psoriatic involvement of the scalp, 0.1% in Lipoderm, topical twice daily for 3 weeks
substance,measurement,setting,value
Manganese ortho tetrakis(N-n-butoxyethylpyridinium-2-yl)porphyrin [MnTnBuOE-2-PyP^5+],time after topical application until symptoms of pruritus were relieved,[1],10 to 15 min
same,time symptoms of pruritus remained under control,[1],several hours
same,comparison of efficacy of 0.01% and 0.1% concentrations,"plaque-forming psoriasis on both legs, lesions treated with 0.01% vs 0.1% in Lipoderm",Equivalent efficacy
same,effect of repeat application on pruritus,"plaque-forming psoriasis on both legs, repeat topical application in Lipoderm",consistently reduced pruritus without tachyphylaxis
same,resolution of pruritic symptoms,[2],completely effective in resolving pruritic symptoms
same,time after application until symptoms of pruritus were relieved,[2],within minutes
same,time symptoms of pruritus remained under control,[2],up to 12 hours
